In assay [1] the target is MALT1-GS-Ub (6-His-hMALT-1 residues 339-715 fused to ubiquitin) (Homo sapiens (Human), UniProt Q9UDY8). The experiment in a line: MALT1 Protease Assay 1 (Assay 1), cleavage of fluorogenic tetrapeptide substrate. The format is biochemical. The conditions noted are these: MALT1-GS-Ub 300-600 nM, Ac-LVSR-AMC 100 μM, 30 min preincubation, 60 min read. Here is the method:
MALT1 Protease Assay 1 (Assay 1)
(§1) MALT1 protease activity was assessed in vitro by measuring the cleavage of a fluorogenic tetrapeptide substrate.
A protein (MALT1-GS-Ub) comprising 6-His-hMALT-1 (residues 339-715), fused to ubiquitin with an 8× GGS linker, was expressed in E. coli, and purified using chitin resin to remove contaminants followed by affinity chromatography purification and size-exclusion chromatography, according to standard protocols.
Briefly, MALT1-GS-Ub (300-600 nM) was incubated with substrate (Ac-LVSR-AMC, 100 μM) in reaction buffer comprising 50 mM HEPES (pH7.0), 25 mM KCl, 0.1% (v/v) CHAPS and 1 mM TCEP.
(§2) Test compounds dissolved in DMSO were dispensed into assay plates (384-well, black, shallow ProxiPlates). 7 μl enzyme solution was added and incubated at room temperature for 30 minutes to allow compound binding to occur. 2 μl substrate solution was then added and the fluorescence (excitation 360 nm, emission 460 nm) read every 15 minutes using a suitable plate reader. Final assay DMSO concentration was 1%. Linearity over 60 minutes was confirmed, and assay signal was calculated by subtracting raw counts at time 0 from those at 60 minutes. % inhibition was calculated for each well, using no enzyme for 100% inhibition controls and no compound for 0% inhibition controls. IC50 values were calculated using GraphPad Prism using a 4-parameter non-linear regression curve fit.

For a further assay, the target named is FL hMALT1 enzyme (Homo sapiens (Human), UniProt Q9UDY8). Nature of the assay: MALT1 Protease Assay 2 (Assay 2), higher sensitivity, cleavage of fluorogenic tetrapeptide substrate. The format is biochemical. The conditions noted are these: FL hMALT1 1-10 nM, Ac-LVSR-AMC 100 μM, 0.7 M sodium citrate, 30 min preincubation, 60 min read. As to the method:
MALT1 Protease Assay 2 (Assay 2)
as §1
For a higher sensitivity assay, commercially available FL hMALT1 enzyme (Abcam, 1-10 nM) was incubated with substrate (Ac-LVSR-AMC, 100 μM) in reaction buffer comprising 50 mM HEPES (pH7.0), 25 mM KCl, 0.1% (v/v) CHAPS, 1 mM TCEP and 0.7 M sodium citrate.
as §2

From patent US20250136577A1, “HETEROCYCLIC DERIVATIVES AS MALT1 INHIBITORS” (C4X Discovery Limited, priority 2022, published 2025) come the findings set out here.

The IC50 is the point on the concentration scale where inhibition reaches its midpoint. Low readings indicate higher potency, high ones lower potency.

FL hMALT1 enzyme, sequence (Q9UDY8 whole entry): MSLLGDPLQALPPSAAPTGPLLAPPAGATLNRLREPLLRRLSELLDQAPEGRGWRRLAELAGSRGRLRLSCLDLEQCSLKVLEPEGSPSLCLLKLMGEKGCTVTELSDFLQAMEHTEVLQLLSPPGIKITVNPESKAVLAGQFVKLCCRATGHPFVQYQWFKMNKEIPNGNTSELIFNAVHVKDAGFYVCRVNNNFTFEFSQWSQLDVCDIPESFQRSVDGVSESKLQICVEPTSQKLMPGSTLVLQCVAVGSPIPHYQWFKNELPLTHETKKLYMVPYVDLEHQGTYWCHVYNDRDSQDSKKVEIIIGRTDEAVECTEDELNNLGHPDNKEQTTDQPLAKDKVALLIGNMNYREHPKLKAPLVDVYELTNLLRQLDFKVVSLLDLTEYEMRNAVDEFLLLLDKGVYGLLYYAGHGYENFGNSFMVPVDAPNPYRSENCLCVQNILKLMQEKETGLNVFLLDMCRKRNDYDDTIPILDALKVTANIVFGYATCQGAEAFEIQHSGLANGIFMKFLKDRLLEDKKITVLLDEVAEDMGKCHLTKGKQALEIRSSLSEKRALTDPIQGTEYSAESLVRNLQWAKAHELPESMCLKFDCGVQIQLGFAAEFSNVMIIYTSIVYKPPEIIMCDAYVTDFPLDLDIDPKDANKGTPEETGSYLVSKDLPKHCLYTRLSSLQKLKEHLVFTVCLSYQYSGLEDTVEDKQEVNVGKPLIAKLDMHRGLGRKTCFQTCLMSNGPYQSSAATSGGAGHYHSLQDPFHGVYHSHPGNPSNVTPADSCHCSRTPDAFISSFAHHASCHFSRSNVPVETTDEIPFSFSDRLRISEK
MALT1-GS-Ub (6-His-hMALT-1 residues 339-715 fused to ubiquitin), sequence (Q9UDY8 other isoform, or with tags, fused parts or gaps): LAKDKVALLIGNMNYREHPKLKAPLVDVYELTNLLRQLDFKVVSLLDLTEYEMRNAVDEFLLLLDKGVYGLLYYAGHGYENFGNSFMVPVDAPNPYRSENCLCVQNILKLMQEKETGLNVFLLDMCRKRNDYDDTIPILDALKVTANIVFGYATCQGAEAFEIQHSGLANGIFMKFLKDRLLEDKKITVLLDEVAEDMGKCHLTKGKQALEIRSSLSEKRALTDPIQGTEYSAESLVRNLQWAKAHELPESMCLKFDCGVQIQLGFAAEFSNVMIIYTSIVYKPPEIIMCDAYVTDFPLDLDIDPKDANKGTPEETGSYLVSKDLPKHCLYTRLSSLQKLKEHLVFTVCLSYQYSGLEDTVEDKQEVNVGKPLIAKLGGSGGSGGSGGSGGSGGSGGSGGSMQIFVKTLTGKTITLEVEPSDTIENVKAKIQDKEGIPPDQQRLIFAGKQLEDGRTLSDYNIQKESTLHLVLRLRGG

As for `C[C@@H]1CN(C(=O)Nc2cnc(-n3nccn3)c(C(F)(F)F)c2)c2cccc(Br)c2[C@@H]1C` (relative stereo) [Example 11, cis-N-(6-(2H-1,2,3-Triazol-2-yl)-5-(trifluoromethyl)pyridin-3-yl)-5-bromo-3,4-dimethyl-3,4-dihydroquinoline-1 (2H)-carboxamide], the half-inhibitory concentration (IC50) in assay [1] came to 4100 nM; against FL hMALT1 enzyme it was 1200 nM.

On to `O=C(Nc1cnc(-n2nccn2)c(Cl)c1)N1CC(C(F)(F)F)Oc2c(Br)cncc21` (single isomer, unassigned) [Example 39, 8-Bromo-N-(5-chloro-6-(2H-1,2,3-triazol-2-yl)pyridin-3-yl)-2-(trifluoromethyl)-2,3-dihydro-4H-pyrido[4,3-b][1,4]oxazine-4-carboxamide], for which the IC50 in assay [1] came to 5800 nM; against FL hMALT1 enzyme, 1200 nM.

On to `Cc1ncc2c(c1C#N)OC(C(F)(F)F)CN2C(=O)Nc1cnc(-n2nccn2)c(C#N)c1` (single isomer, unassigned) [Example 62, 8-Cyano-N-(5-cyano-6-(2H-1,2,3-triazol-2-yl)pyridin-3-yl)-7-methyl-2-(trifluoromethyl)-2,3-dihydro-4H-pyrido[4,3-b][1,4]oxazine-4-carboxamide], for which 6500 nM corresponded to half-maximal inhibition against FL hMALT1 enzyme (IC50).

`Cc1ncc2c(c1C#N)OC(C(F)(F)F)CN2C(=O)Nc1cnc(-n2nccn2)c(C#N)c1` (single isomer, unassigned) [Example 63, 8-Cyano-N-(5-cyano-6-(2H-1,2,3-triazol-2-yl)pyridin-3-yl)-7-methyl-2-(trifluoromethyl)-2,3-dihydro-4H-pyrido[4,3-b][1,4]oxazine-4-carboxamide] showed an IC50 at FL hMALT1 enzyme of 104 nM.

At FL hMALT1 enzyme, `Cc1ncc2c(c1C#N)OC(C(F)(F)F)CN2C(=O)Nc1cnc(-n2nccn2)c(C(F)(F)F)c1` (single isomer, unassigned) [Example 64, N-(6-(2H-1,2,3-triazol-2-yl)-5-(trifluoromethyl)pyridin-3-yl)-8-cyano-7-methyl-2-(trifluoromethyl)-2,3-dihydro-4H-pyrido[4,3-b][1,4]oxazine-4-carboxamide] registered a half-inhibitory concentration (IC50) of 2120 nM.

In turn, `Cc1ncc2c(c1C#N)OC(C(F)(F)F)CN2C(=O)Nc1cnc(-n2nccn2)c(C(F)(F)F)c1` (single isomer, unassigned) [Example 65, N-(6-(2H-1,2,3-triazol-2-yl)-5-(trifluoromethyl)pyridin-3-yl)-8-cyano-7-methyl-2-(trifluoromethyl)-2,3-dihydro-4H-pyrido[4,3-b][1,4]oxazine-4-carboxamide] had a half-maximal inhibitory concentration (IC50) against FL hMALT1 enzyme of 17 nM.

For the compound `Cc1ncc2c(c1C#N)OC(C(F)(F)F)CN2C(=O)Nc1cnc(C(=O)N(C)C2CC2)c(C(F)F)c1` (single isomer, unassigned) [Example 66, 8-Cyano-N-(6-(cyclopropyl(methyl)carbamoyl)-5-(difluoromethyl)pyridin-3-yl)-7-methyl-2-(trifluoromethyl)-2,3-dihydro-4H-pyrido[4,3-b][1,4]oxazine-4-carboxamide], at FL hMALT1 enzyme, the IC50 was determined as 9100 nM.

`Cc1ncc2c(c1C#N)OC(C(F)(F)F)CN2C(=O)Nc1cnc(C(=O)N(C)C2CC2)c(C(F)F)c1` (single isomer, unassigned) [Example 67, 8-Cyano-N-(6-(cyclopropyl(methyl)carbamoyl)-5-(difluoromethyl)pyridin-3-yl)-7-methyl-2-(trifluoromethyl)-2,3-dihydro-4H-pyrido[4,3-b][1,4]oxazine-4-carboxamide] yielded an IC50 on FL hMALT1 enzyme of 146 nM.

In assay [1], `O=C(Nc1cnc(-n2nccn2)c(Cl)c1)N1CCCc2c(Br)cccc21` [Example 1, 5-Bromo-N-(5-chloro-6-(2H-1,2,3-triazol-2-yl)pyridin-3-yl)-3,4-dihydroquinoline-1 (2H)-carboxamide] registered an IC50 of 4500 nM.

For the compound `O=C(Nc1cnc(-n2nccn2)c(C(F)(F)F)c1)N1CCCc2c(Br)cccc21` [Example 2, N-(6-(2H-1,2,3-Triazol-2-yl)-5-(trifluoromethyl)pyridin-3-yl)-5-bromo-3,4-dihydroquinoline-1 (2H)-carboxamide], in assay [1], the midpoint of inhibition, the IC50, lay at 3200 nM.

Regarding `COc1cccc2c1CCCN2C(=O)Nc1cnc(-n2nccn2)c(Cl)c1` [Example 3, N-(5-Chloro-6-(2H-1,2,3-triazol-2-yl)pyridin-3-yl)-5-methoxy-3,4-dihydroquinoline-1 (2H)-carboxamide], the concentration for half-maximal inhibition (IC50) in assay [1] is 3000 nM; on FL hMALT1 enzyme it was 610 nM.

Consider `O=C(Nc1cnc(-n2nccn2)c(C(F)(F)F)c1)N1CCOc2c(Br)cccc21` [Example 4, N-(6-(2H-1,2,3-Triazol-2-yl)-5-(trifluoromethyl)pyridin-3-yl)-8-bromo-2,3-dihydro-4H-benzo[b][1,4]oxazine-4-carboxamide], for which the half-maximal inhibitory concentration (IC50) in assay [1] was 2800 nM; on FL hMALT1 enzyme it was 400 nM.

Take `CC1CN(C(=O)Nc2cnc(-n3nccn3)c(C(F)(F)F)c2)c2cccc(Br)c2O1` (stereo not drawn) [Example 5, N-(6-(2H-1,2,3-Triazol-2-yl)-5-(trifluoromethyl)pyridin-3-yl)-8-bromo-2-methyl-2,3-dihydro-4H-benzo[b][1,4]oxazine-4-carboxamide]: the IC50 was 3300 nM in assay [1] and 120 nM against FL hMALT1 enzyme.

Consider `N#Cc1cccc2c1CCCN2C(=O)Nc1cnc(-n2nccn2)c(Cl)c1` [Example 7, N-(5-Chloro-6-(2H-1,2,3-triazol-2-yl)pyridin-3-yl)-5-cyano-3,4-dihydroquinoline-1 (2H)-carboxamide], for which the half-maximal inhibitory concentration (IC50) is 6900 nM in assay [1] and 1200 nM against FL hMALT1 enzyme.

Take `O=C(Nc1cnc(-n2nccn2)c(C(F)(F)F)c1)N1CCCc2c(-c3cccnc3)cccc21` [Example 8, N-(6-(2H-1,2,3-Triazol-2-yl)-5-(trifluoromethyl)pyridin-3-yl)-5-(pyridin-3-yl)-3,4-dihydroquinoline-1 (2H)-carboxamide]: the results for the IC50 (in assay [1]; at FL hMALT1 enzyme) were 9800 nM and greater than 10000 nM, respectively.

Consider `O=C(Nc1cnc(-n2nccn2)c(C(F)(F)F)c1)N1CCCc2c(-c3ncco3)cccc21` [Example 9, N-(6-(2H-1,2,3-Triazol-2-yl)-5-(trifluoromethyl)pyridin-3-yl)-5-(oxazol-2-yl)-3,4-dihydroquinoline-1 (2H)-carboxamide], for which the IC50 stood at 4600 nM in assay [1] and 2000 nM on FL hMALT1 enzyme.

Take `O=C(Nc1cnc(-n2nccn2)c(C(F)(F)F)c1)N1CCCc2c(-c3nccs3)cccc21` [Example 10, N-(6-(2H-1,2,3-Triazol-2-yl)-5-(trifluoromethyl)pyridin-3-yl)-5-(thiazol-2-yl)-3,4-dihydroquinoline-1 (2H)-carboxamide]: the IC50 in assay [1] worked out at 1500 nM; on FL hMALT1 enzyme it was 1000 nM.

Consider `O=C(Nc1cnc(-n2nccn2)c(C(F)(F)F)c1)N1CCCc2c(-c3ccccc3)cccc21` [Example 12, N-(6-(2H-1,2,3-Triazol-2-yl)-5-(trifluoromethyl)pyridin-3-yl)-5-phenyl-3,4-dihydroquinoline-1 (2H)-carboxamide], for which the results for the IC50 (in assay [1]; on FL hMALT1 enzyme) were 2300 nM and 650 nM, respectively.

`CC1(C)CN(C(=O)Nc2cnc(-n3nccn3)c(Cl)c2)c2cccc(Br)c2O1` [Example 13, 8-Bromo-N-(5-chloro-6-(2H-1,2,3-triazol-2-yl)pyridin-3-yl)-2,2-dimethyl-2,3-dihydro-4H-benzo[b][1,4]oxazine-4-carboxamide]: the 50% inhibitory concentration (IC50) (in assay [1]; against FL hMALT1 enzyme) was 1300 nM in each case.

With `O=C(Nc1cnc(-n2nccn2)c(C(F)(F)F)c1)N1CCCc2c(-c3nncs3)cccc21` [Example 14, N-(6-(2H-1,2,3-triazol-2-yl)-5-(trifluoromethyl)pyridin-3-yl)-5-(1,3,4-thiadiazol-2-yl)-3,4-dihydroquinoline-1 (2H)-carboxamide], the IC50 is 8500 nM in assay [1] and 8200 nM against FL hMALT1 enzyme.

Regarding `CC1(C)Cc2c(Br)cccc2N(C(=O)Nc2cnc(-n3nccn3)c(Cl)c2)C1` [Example 15, 5-Bromo-N-(5-chloro-6-(2H-1,2,3-triazol-2-yl)pyridin-3-yl)-3,3-dimethyl-3,4-dihydroquinoline-1 (2H)-carboxamide], the IC50 is 1300 nM in assay [1] and 440 nM on FL hMALT1 enzyme.

`N#CC1Cc2c(Br)cncc2N(C(=O)Nc2cnc(-n3nccn3)c(Cl)c2)C1` (stereo not drawn) [Example 58, 5-Bromo-N-(5-chloro-6-(2H-1,2,3-triazol-2-yl)pyridin-3-yl)-3-cyano-3,4-dihydro-1,7-naphthyridine-1 (2H)-carboxamide] displayed an IC50 at FL hMALT1 enzyme of 1290 nM.

With `Cc1ncc2c(c1C#N)OC(C(F)(F)F)CN2C(=O)Nc1ccnc(C(F)(F)F)c1` (stereo not drawn) [Example 59, 8-Cyano-7-methyl-2-(trifluoromethyl)-N-(2-(trifluoromethyl)pyridin-4-yl)-2,3-dihydro-4H-pyrido[4,3-b][1,4]oxazine-4-carboxamide], half-maximal inhibition on FL hMALT1 enzyme (IC50) required 820 nM.
